Where two headings read alike, the source gives them in different places. Each block holds one compound with its values, some of them ahead of it.
Tests used:
Trichoplusia ni = assay: In-vitro insecticidal efficacy of Entrust SC (spinosad) with saturated and unsaturated aliphatic acids on artificial diet, Abbott and Colby formulae; type: in vivo, Trichoplusia ni (cabbage looper); settings: Entrust SC 0.034 ppm ([…] spinosad); aliphatic acid (salt) 500 ppm; Abbott-corrected
Protocol: An artificial diet suitable for Trichoplusia ni (cabbage looper caterpillar) was prepared from a commercially available general purpose lepidoptera artificial diet premix (General Purpose Lepidoptera Diet available from Frontier Scientific Services, Newark, Del.) mixed in agar media and then heated to liquify the media. The liquid artificial diet media was then used to fill each well of a 96-well treatment plate with 200 uL of artificial diet media, which was allowed to solidify at room temperature and stored at approximately 4 C.
A 20 uL treatment sample of each treatment formulation was then placed on top of the solidified artificial diet media in each well of the 96 well plates and allowed to dry overnight. The following day, one neonate Trichoplusia ni (cabbage looper) larva (hatched from eggs obtained from the Natural Resource Canada insect research facility in Sault-Ste-Marie, ON, Canada) was added to each well of the plate, and their mortality rate was evaluated after 5 days, to determine the insecticidal efficacy of the Entrust® SC treatment alone, each exemplary unsaturated or saturated aliphatic acid (and salt) alone, and each combination of spinosad (as Entrust® SC) and unsaturated or saturated aliphatic acid (and salt). Each experiment contained 3 replicates.
While for SF<1, antagonism is present and for SF=1, the efficacy of the compounds is merely additive.

Fusarium oxysporum = assay: Synergistic Growth Inhibition Assay (MIC / FIC index, resazurin, 96-well) on Fusarium oxysporum; type: cell-based; settings: for MIC: Fusarium oxysporum, 48 h
Protocol: (§1) In some embodiments, the synergistic action between the pesticidal active ingredient, and the at least one C4-C10 (or alternatively C11 or C12) saturated or unsaturated aliphatic acid components of the pesticidal compositions according to embodiments of the present disclosure was tested using a Synergistic Growth Inhibition Assay, which is derived from and related to a checkerboard assay as is known in the art for testing of combinations of antimicrobial agents. In the Synergistic Growth Inhibition Assay used in accordance with some embodiments of the present disclosure, multiple dilutions of combinations of pesticidal active ingredient and at least one C4-C10 saturated or unsaturated aliphatic acid agents are tested in individual cells for inhibitory activity against a target pest or pathogenic organism. In one such embodiment, the combinations of pesticidal active ingredient and C4-C10 (or alternatively C11 or C12) saturated or unsaturated aliphatic acid agents may preferably be tested in decreasing concentrations. In a further such embodiment, the combinations of pesticidal active ingredient and C4-C10 (or alternatively C11 or C12) saturated or unsaturated aliphatic acid agents may be tested in increasing concentrations. These multiple combinations of the pesticidal active ingredient and at least one C4-C10 (or alternatively C11 or C12) saturated or unsaturated aliphatic acid agents may be prepared in 96-well microtiter plates. In one such embodiment, the Synergistic Growth Inhibition Assay then comprises rows which each contain progressively decreasing concentrations of the pesticidal active ingredient and one or more C4-C10 (or alternatively C11 or C12) saturated or unsaturated aliphatic acid agents to test for the MIC of the agents in combination at which growth of the target pest or pathogen is inhibited. Thus, each well of the microtiter plate is a unique combination of the two agents, at which inhibitory efficacy of the combination against the target pest or pathogen can be determined.
(§2) In one embodiment according to the present disclosure, for each row of microtiter cells in the Synergistic Growth Inhibition Assay, the FIC index is calculated from the lowest concentration of the pesticidal active ingredient and one or more C4-C10 saturated or unsaturated aliphatic acid agents necessary to inhibit growth of a target pest or pathogen. The FIC of each component is derived by dividing the concentration of the agent present in that well of the microtiter plate by the minimal inhibitory concentration (MIC) needed of that agent alone to inhibit growth of the target pest or pathogen. The FIC index is then the sum of these values for both agents in that well of the microtiter plate. The FIC index is calculated for each row as follows:
(§3) FICindex=MICa/MICA+MICb/MICB
(§4) Fractional inhibitory concentration indices may then used as measure of synergy. […] When the FIC index is equal to 1, the combination is additive.
(§5) Then, serial dilutions of these initial compositions in successive wells in the row of the microtiter plate were used to assay the pesticidal composition under the same conditions to determine the concentration of the composition combining the two agents corresponding to the microtiter well in which growth inhibition of the target pest or organism ceases.
Resazurin dye (also known as Alamar blue dye) was used as an indicator to determine the presence of growth or inhibition of growth of Fusarium oxysporum in the wells of the 96 well microtiter plates used in the exemplary Synergistic Growth Inhibition Assay. In addition to the color change of the resazurin dye in the presence of growth of the Fusarium oxysporum, an optical or visual examination of the microtiter well may also be made to additionally determine the presence of growth or inhibition of growth of the Fusarium oxysporum.

Sclerotinia sclerotiorum = assay: Synergistic Growth Inhibition Assay (MIC / FIC index, resazurin, 96-well) on Sclerotinia sclerotiorum; type: cell-based; settings: for MIC: Compound B alone, read-out: MIC (B); for MIC (A): Compound A alone
Protocol: as §1, §2, §3, §4, §5
(§6) Similarly to as described above, Resazurin was used as an indicator of growth or inhibition of growth of Sclerotinia sclerotiorum in the exemplary Synergistic Growth Inhibition Assay. In addition to the color change of the resazurin, an optical or visual examination of the microtiter well may also be made to additionally determine the presence of growth or inhibition of growth of the Sclerotinia sclerotiorum.

Botrytis cinerea = assay: Synergistic Growth Inhibition Assay (MIC / FIC index, resazurin, 96-well) on Botrytis cinerea; type: cell-based; settings: Botrytis cinerea, Botrytis cinerea; for MIC: 48 h
Protocol: as §1, §2, §3, §4, §5
as §6, with “Botrytis cinerea” for “Sclerotinia sclerotiorum”, “Botrytis cinerea.” for “Sclerotinia sclerotiorum.”

[1] = Compound B alone, incubation period of 48 hours, read-out: MIC (B)
[2] = Sclerotinia sclerotiorum, Sclerotinia sclerotiorum, 7 days incubation
[3] = Sclerotinia sclerotiorum, Sclerotinia sclerotiorum, incubation period of 7 days
[4] = Compound B alone, 48 hours incubation, read-out: MIC (B)
[5] = Compound A alone, incubation period of 48 hours

SMILES: C=CCCCCCCCC(=O)O [9-Decenoic acid, 9-decenoic acid]
Observed Efficacy, W (%) (Trichoplusia ni): 4.5%

SMILES: C=CCCCCCC(=O)O [7-octenoic acid]
Observed Efficacy, W (%) (Trichoplusia ni): 0%

MIC (Fusarium oxysporum; [1]): 1250 µg/mL | MIC (Sclerotinia sclerotiorum; [2]): 625 µg/mL | MIC (Sclerotinia sclerotiorum; [3]): 625 µg/mL
SMILES: CCCCCC(O)CC(=O)O (centres unmarked) [3-hydroxyoctanoic acid]

SMILES: CCCC=CCC(=O)O [3-heptanoic acid]
Observed Efficacy, W (%) (Trichoplusia ni): 4.5%

MIC (Botrytis cinerea; [1]): 156 µg/mL | MIC (Fusarium oxysporum; [4]): 156 µg/mL | MIC (Sclerotinia sclerotiorum; [2]): 78.1 µg/mL | MIC (Sclerotinia sclerotiorum; [3]): 78.1 µg/mL
SMILES: CCC(C)CCC(=O)O (centres unmarked) [4-methylhexanoic acid]

SMILES: CC(C)C1C2CCC1c1c(NC(=O)c3cn(C)nc3C(F)F)cccc12 (centres unmarked) [Isopyrazam, reference compound]
MIC (A) (Botrytis cinerea; [5]): 31.25 µg/mL

SMILES: CCCCCCCC(=O)O [Octanoic acid, octanoic acid]
Observed Efficacy, W (%) (Trichoplusia ni): 4.5%

SMILES: CCCCCCCCCCCC(=O)O [Dodecanoic acid, dodecanoic acid]
Observed Efficacy, W (%) (Trichoplusia ni): 0%

SMILES: C/C=C/C=C/C(=O)[O-].[K+] [(2E,4E)-2,4 hexadienoic acid, K-salt]
Observed Efficacy, W (%) (Trichoplusia ni): 9.1%

SMILES: Cc1cc(C(F)(F)F)nn1CC(=O)N1CCC(c2nc(C3=NOC(c4c(F)cccc4F)C3)cs2)CC1 (centres unmarked) [Oxathiapiprolin, reference compound]
MIC (A) (Botrytis cinerea; [5]): 500 µg/mL

SMILES: C/C=C/C=C/C(=O)O [(2E,4E)-2,4 hexadienoic acid]
Observed Efficacy, W (%) (Trichoplusia ni): 4.5%

SMILES: COC(=O)N(OC)c1ccccc1COc1ccn(-c2ccc(Cl)cc2)n1 [Pyraclostrobin, pyraclostrobin, reference compound]
MIC (Botrytis cinerea; Compound A alone, incubation period of 2 days, read-out: MIC (A)): 15 µg/mL | MIC (A) (Sclerotinia sclerotiorum; 7 days incubation): 3.75 µg/mL

MIC (Fusarium oxysporum; [4]): 5000 µg/mL | MIC (Fusarium oxysporum; [1]): 5000 µg/mL | MIC (Sclerotinia sclerotiorum; [2]): 2500 µg/mL | MIC (Sclerotinia sclerotiorum; [3]): 2500 µg/mL
SMILES: CCC(O)C(=O)O (centres unmarked) [2-hydroxybutyric acid]

SMILES: CCCCCC/C=C/C(=O)O [Trans-2 nonenoic acid]
Observed Efficacy, W (%) (Trichoplusia ni): 3.6%

SMILES: CCCCCCCC/C=C/C(=O)O [Trans-2 undecenoic acid]
Observed Efficacy, W (%) (Trichoplusia ni): 27.3%

MIC (Fusarium oxysporum; [4]): 625 µg/mL | MIC (Sclerotinia sclerotiorum; [2]): 312 µg/mL
SMILES: CC(C)CC(=O)O [3-methylbutyric acid]

SMILES: CC(C)(C)C(O)(CCc1ccc(Cl)cc1)Cn1cncn1 (centres unmarked) [Tebuconazole, reference compound]
MIC (A) (Botrytis cinerea; Compound A alone, incubation period of 2 days): 112.5 µg/mL | MIC (A) (Botrytis cinerea; [5]): 112.5 µg/mL | MIC (A) (Fusarium oxysporum; Compound A alone, 48 hours incubation): 225 µg/mL | MIC (Fusarium oxysporum; Compound A alone, incubation period of 48 hours, read-out: MIC (A)): 112 µg/mL | MIC (A) (Sclerotinia sclerotiorum; Sclerotinia sclerotiorum, 2-fold dilutions, incubation period of 7 days): 112.5 µg/mL

SMILES: CC=CC=CC(=O)O [2,4-Dihexenoic acid]
MIC (B) (Botrytis cinerea; Compound B alone, incubation period of 48 hours): 125 µg/mL

From patent publication US20210352895A1, “SYNERGISTIC PESTICIDAL COMPOSITIONS AND METHODS FOR DELIVERY OF ACTIVE INGREDIENTS” (0903608 B.C. Ltd., priority 2018, published 2021)
